Results reported in patent publication US20190262321A1, “METHODS OF TREATING DIABETIC NEPHROPATHY USING HPTPB INHIBITORS” (Aerpio Therapeutics, Inc., priority 2018, published 2019).

Legend:
[1] = test system: human subjects; assay: Assessment of renal function indices (UACR) in subjects treated with compound AA34; assay type: in vivo; details: for % Change in Geometric Mean (UACR): baseline to end of treatment (three months), patients with albuminuria at baseline
Protocol: The human subjects treated with compound AA34 were administered 15 mg of the compound subcutaneously twice a day for three months. One group of subjects received the compound and ranibizumab (RBZ; 0.3 mg monthly via intraocular injection), while the other group received only the compound with a sham intraocular injection. The subjects in the placebo arm received a placebo subcutaneously twice a day along with ranibizumab. […] Within the subjects that had albuminuria, 30% had microalbuminuria (>30 mg/g and <300 mg/g UACR) and 20% had macroalbuminuria (>300 mg/g UACR).
The results of the study are shown in FIG. 2 and TABLE 2 as the % change from baseline to end of treatment (three months) in geometric mean +95% confidence interval in the patients with albuminuria at baseline.

[2] = test system: Male C57BL6 mice; assay: Endotoxin (LPS)-induced acute kidney injury: serum BUN and kidney histology; assay type: in vivo
Protocol: (§1) Male C57BL6 mice, 9-10 weeks old, were injected i.p. with 0.2 mg E. coli LPS per 25 g body weight. The mice were injected with compound AA34 (50 mg/kg, 50 μL) or the vehicle (50 μL) at the time of lipopolysaccharide (LPS) injection, 8 after LPS injection, and 16 hours after LPS injection. The mice were sacrificed 24 h after the LPS injection. The saline-injected mice were studied in parallel as controls. Serum samples from the mice were analyzed for BUN as a marker of kidney function.

[3] = test system: Tie2; assay: Immunoprecipitation of kidney homogenate for Tie2 phosphorylation after LPS; assay type: in vivo, mice
Protocol: Male C57BL6 mice, 9-10 weeks old, were injected i.p. with 0.2 mg E. coli LPS per 25 g body weight. The mice were injected with compound AA34 (50 mg/kg, 50 μL) or the vehicle (50 μL) at the time of lipopolysaccharide (LPS) injection, 8 after LPS injection, and 16 hours after LPS injection. The mice were sacrificed 24 h after the LPS injection. The saline-injected mice were studied in parallel as controls. Immunoprecipitation of kidney homogenate was performed to analyze the extent of Tie2 phosphorylation in the drug versus vehicle groups. Immunoprecipitation of kidney homogenate was completed using anti-Tie2 Ab, which was probed using anti-phosphotyrosine Ab. Total Tie2 levels were equal in the drug-treated and vehicle-treated groups after being injected with LPS.

[4] = test system: Male C57BL6 mice; assay: Renal apoptosis after LPS (DNA laddering, TUNEL staining); assay type: in vivo; details: versus vehicle
Protocol: as §1, with “Apoptosis was detected in kidney homogenate using DNA laddering, which is” for “Serum samples from”, “result” for “mice were analyzed for BUN as a marker”, “apoptotic DNA fragmentation. […] Terminal deoxynucleotidyl transferase dUTP nick end labeling (TUNEL) staining was used to visualize the presence of apoptotic nuclei.” for “kidney function.”

[5] = test system: Male C57BL6 mice; assay: LPS-induced renal neutrophil infiltration; assay type: in vivo; details: 24 h after LPS injection
Protocol: as §1, with “controls.” for “controls. Serum samples from the mice were analyzed for BUN as a marker of kidney function.”

[6] = test system: TNFR1; assay: RT-PCR of kidney homogenate after LPS: TNFR1; assay type: in vivo, mice; details: versus vehicle
Protocol: as §1, with “Phosphatase inhibition by compound AA34 reduced renal mRNA expression of various mediators of inflammation and coagulation, as shown in FIG. 8. The kidneys of” for “Serum samples from”, “RNA level expression” for “BUN as a marker”, “various inflammatory mediators. […] TNFR1, PAI-1, and tissue factor were expressed mainly in the endothelium, the site of Tie2 expression.” for “kidney function.”

[7] = test system: plasminogen activator inhibitor-1 (PAI-1); assay: RT-PCR of kidney homogenate after LPS: PAI-1; assay type: in vivo, mice; details: versus vehicle
Protocol: as §1, with “Phosphatase inhibition by compound AA34 reduced renal mRNA expression of various mediators of inflammation and coagulation, as shown in FIG. 8. The kidneys of” for “Serum samples from”, “RNA level expression” for “BUN as a marker”, “various inflammatory mediators. […] TNFR1, PAI-1, and tissue factor were expressed mainly in the endothelium, the site of Tie2 expression.” for “kidney function.”

[8] = test system: tissue factor; assay: RT-PCR of kidney homogenate after LPS: tissue factor; assay type: in vivo, mice; details: versus vehicle
Protocol: as §1, with “Phosphatase inhibition by compound AA34 reduced renal mRNA expression of various mediators of inflammation and coagulation, as shown in FIG. 8. The kidneys of” for “Serum samples from”, “RNA level expression” for “BUN as a marker”, “various inflammatory mediators. […] TNFR1, PAI-1, and tissue factor were expressed mainly in the endothelium, the site of Tie2 expression.” for “kidney function.”

[9] = test system: inducible nitric oxide synthase (iNOS); assay: RT-PCR of kidney homogenate after LPS: iNOS; assay type: in vivo, mice; details: versus vehicle
Protocol: as §1, with “Phosphatase inhibition by compound AA34 reduced renal mRNA expression of various mediators of inflammation and coagulation, as shown in FIG. 8. The kidneys of” for “Serum samples from”, “RNA level expression” for “BUN as a marker”, “various inflammatory mediators. […] TNFR1, PAI-1, and tissue factor were expressed mainly in the endothelium, the site of Tie2 expression.” for “kidney function.”

[10] = test system: Male C57BL6 mice; assay: Renal vascular leak after LPS (fluorescent dextrans, tomato lectin); assay type: in vivo; details: 24 h after LPS
Protocol: as §1, with “Mice were injected with LPS and drug (compound AA34) versus the vehicle (LPS only). 2 min prior to sacrificing the animals at 24 h,” for “Serum samples from”, “injected with 70 kDa and 500 kDa fluorescent fixable dextrans by intravenous catheter.” for “analyzed for BUN as a marker of kidney function.”

[11] = Baseline UACR 30-300 mg/g (n 31)

SMILES: COC(=O)N[C@@H](Cc1ccccc1)C(=O)N[C@@H](Cc1ccc(NS(=O)(=O)O)cc1)c1csc(-c2cccs2)n1 [AA34]
- shift analysis: subjects with UACR 30-300 at Month 3/EOT [1, 11]: 25 (81%)
- shift analysis: subjects with UACR <30 at Month 3/EOT [1, 11]: 4 (13%)
- shift analysis: subjects with UACR >300 at Month 3/EOT [1, 11]: 2 (6%)
- shift analysis: subjects with UACR 30-300 at Month 3/EOT ([1]; Baseline UACR <30 mg/g (n 43)): 2 (5%)
- shift analysis: subjects with UACR <30 at Month 3/EOT ([1]; Baseline UACR <30 mg/g (n 43)): 41 (95%)
- shift analysis: subjects with UACR >300 at Month 3/EOT ([1]; Baseline UACR <30 mg/g (n 43)): 0
- shift analysis: subjects with UACR 30-300 at Month 3/EOT ([1]; Baseline UACR >300 mg/g (n 18)): 1 (6%)
- shift analysis: subjects with UACR <30 at Month 3/EOT ([1]; Baseline UACR >300 mg/g (n 18)): 1 (6%)
- shift analysis: subjects with UACR >300 at Month 3/EOT ([1]; Baseline UACR >300 mg/g (n 18)): 16 (89%)
- % Change in Geometric Mean (UACR) ([1]; 15 mg subcutaneously twice a day): −17.7%
- % Change in Geometric Mean (UACR) ([1]; 15 mg subcutaneously twice a day, listed as All Compound): −21.2%
- reduction in the UACR compared to patients receiving placebo ([1]; three months, 15 mg subcutaneously twice a day): ~20%
- morphologic tubular injury (histology) ([2]; 24 h after LPS injection, drug versus vehicle): less morphologic tubular injury
- LPS-induced rise in BUN ([2]; serum, 24 h after LPS, 50 mg/kg at 0, 8 and 16 hours, versus vehicle, p=0.002): statistically reduced
- tyrosine phosphorylated Tie2 in kidney homogenate ([3]; LPS+Compound AA34 versus LPS+vehicle, 8 h after the last dose): increased levels
- Total Tie2 levels in kidney homogenate ([3]; drug-treated versus vehicle-treated groups after LPS): equal
- DNA laddering (apoptosis) in kidney homogenate [4]: less DNA laddering
- apoptosis (TUNEL staining of apoptotic nuclei) [4]: less apoptosis
- reduction of renal neutrophil infiltration [5]: over 50%
- reduction of renal mRNA expression of TNFR1 [6]: about 6 fold
- reduction of renal mRNA expression of PAI-1 [7]: about 5 fold
- reduction of renal mRNA expression of tissue factor [8]: about 0.8 fold
- reduction of renal mRNA expression of iNOS [9]: about 1.5 fold
- LPS-induced extrusion of dye beyond the small peritubular capillaries (vascular leak) ([10]; 70 kDa and 500 kDa fluorescent fixable dextrans): markedly reduced
- tomato lectin staining of peritubular capillaries (vascular integrity) [10]: relatively preserved
